Results from the supplement of paper PMC10307832.

Tests used:
Experiment in all cases: relative viability (nuclei count vs DMSO), 5 days (fraction); higher = more cells survive
EKVX = tested on: EKVX
Procedure, shortened: (§1)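 Dosing by pin tool came one day after lung cancer cell lines were seeded in 1536-well plates, using either one drug or a fixed anchor-drug dose plus five library-drug doses (not always all listed) in √10 steps. After 5 days, nuclei were counted on 4× images. Relative viability is treated-well nuclei count divided by vehicle-well nuclei count, and values are medians of duplicate plates.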

EMC-BAC-2 = tested on: EMC-BAC-2
Procedure, shortened: as §1

ChaGo-K-1 = tested on: ChaGo-K-1
Procedure, shortened: as §1

SK-MES-1 = tested on: SK-MES-1
Procedure, shortened: as §1

NCI-H520 = tested on: NCI-H520
Procedure, shortened: as §1

NCI-H1975 = tested on: NCI-H1975
Procedure, shortened: as §1

PC-3 [JPC-3] = tested on: PC-3 [JPC-3]
Procedure, shortened: as §1

NCI-H1755 = tested on: NCI-H1755
Procedure, shortened: as §1

NCI-H1563 = tested on: NCI-H1563
Procedure, shortened: as §1

NCI-H596 = tested on: NCI-H596
Procedure, shortened: as §1

LK-2 = tested on: LK-2
Procedure, shortened: as §1

H3255 = tested on: H3255
Procedure, shortened: as §1

SW 900 = tested on: SW 900
Procedure, shortened: as §1

LOU-NH91 = tested on: LOU-NH91
Procedure, shortened: as §1

NCI-H1666 = tested on: NCI-H1666
Procedure, shortened: as §1

HCC-366 = tested on: HCC-366
Procedure, shortened: as §1

COR-L 105 = tested on: COR-L 105
Procedure, shortened: as §1

A-427 = tested on: A-427
Procedure, shortened: as §1

NCI-H441 = tested on: NCI-H441
Procedure, shortened: as §1

NCI-H1734 = tested on: NCI-H1734
Procedure, shortened: as §1

NCI-H2170 = tested on: NCI-H2170
Procedure, shortened: as §1

NCI-H23 = tested on: NCI-H23
Procedure, shortened: as §1

Oc1nc(-c2ccc(C(F)(F)F)cc2)nc2c1CSCC2 [XAV939] + COc1cc2c(Oc3ccc(NC(=O)C4(C(=O)Nc5ccc(F)cc5)CC4)cc3F)ccnc2cc1OCCCN1CCOCC1 [Foretinib] (partner 0.25 µM)
relative viability (EKVX; first compound 0.08 µM): 0.876
relative viability (EKVX; first compound 0.253 µM): 0.628
relative viability (EKVX; first compound 0.8 µM): 0.675
relative viability (EKVX; first compound 2.53 µM): 0.793
relative viability (EMC-BAC-2; first compound 0.08 µM): 1.05
relative viability (EMC-BAC-2; first compound 0.253 µM): 0.747
relative viability (EMC-BAC-2; first compound 0.8 µM): 0.848
relative viability (EMC-BAC-2; first compound 2.53 µM): 0.553
relative viability (ChaGo-K-1; first compound 0.08 µM): 0.874
relative viability (ChaGo-K-1; first compound 0.253 µM): 1.01
relative viability (ChaGo-K-1; first compound 0.8 µM): 0.812
relative viability (ChaGo-K-1; first compound 2.53 µM): 0.773
relative viability (SK-MES-1; first compound 0.08 µM): 1.02
relative viability (SK-MES-1; first compound 0.253 µM): 0.841
relative viability (SK-MES-1; first compound 0.8 µM): 0.864
relative viability (SK-MES-1; first compound 2.53 µM): 0.82
relative viability (NCI-H520; first compound 0.08 µM): 0.781
relative viability (NCI-H520; first compound 0.253 µM): 0.694
relative viability (NCI-H520; first compound 0.8 µM): 0.677
relative viability (NCI-H520; first compound 2.53 µM): 0.626
relative viability (NCI-H1975; first compound 0.08 µM): 0.858
relative viability (NCI-H1975; first compound 0.253 µM): 0.696
relative viability (NCI-H1975; first compound 0.8 µM): 0.691
relative viability (NCI-H1975; first compound 2.53 µM): 0.756
relative viability (PC-3 [JPC-3]; first compound 0.08 µM): 1.03
relative viability (PC-3 [JPC-3]; first compound 0.253 µM): 0.854
relative viability (PC-3 [JPC-3]; first compound 0.8 µM): 1.02
relative viability (PC-3 [JPC-3]; first compound 2.53 µM): 0.951
relative viability (NCI-H1755; first compound 0.08 µM): 0.891
relative viability (NCI-H1755; first compound 0.253 µM): 0.787
relative viability (NCI-H1755; first compound 0.8 µM): 0.815
relative viability (NCI-H1755; first compound 2.53 µM): 0.809
relative viability (NCI-H1563; first compound 0.08 µM): 1.02
relative viability (NCI-H1563; first compound 0.253 µM): 0.905
relative viability (NCI-H1563; first compound 0.8 µM): 0.831
relative viability (NCI-H1563; first compound 2.53 µM): 0.678
relative viability (NCI-H596; first compound 0.08 µM): 0.814
relative viability (NCI-H596; first compound 0.253 µM): 0.874
relative viability (NCI-H596; first compound 0.8 µM): 0.84
relative viability (NCI-H596; first compound 2.53 µM): 0.797
relative viability (LK-2; first compound 0.08 µM): 1.96
relative viability (LK-2; first compound 0.253 µM): 1.19
relative viability (LK-2; first compound 0.8 µM): 1.08
relative viability (LK-2; first compound 2.53 µM): 1.13
relative viability (H3255; first compound 0.08 µM): 0.845
relative viability (H3255; first compound 0.253 µM): 0.825
relative viability (H3255; first compound 0.8 µM): 0.803
relative viability (H3255; first compound 2.53 µM): 0.851
relative viability (SW 900; first compound 0.08 µM): 0.848
relative viability (SW 900; first compound 0.253 µM): 0.765
relative viability (SW 900; first compound 0.8 µM): 0.767
relative viability (SW 900; first compound 2.53 µM): 0.82
relative viability (LOU-NH91; first compound 0.08 µM): 0.932
relative viability (LOU-NH91; first compound 0.253 µM): 0.918
relative viability (LOU-NH91; first compound 0.8 µM): 0.903
relative viability (LOU-NH91; first compound 2.53 µM): 0.891
relative viability (NCI-H1666; first compound 0.08 µM): 0.99
relative viability (NCI-H1666; first compound 0.253 µM): 0.919
relative viability (NCI-H1666; first compound 0.8 µM): 0.908
relative viability (NCI-H1666; first compound 2.53 µM): 0.952
relative viability (HCC-366; first compound 0.08 µM): 0.91
relative viability (HCC-366; first compound 0.253 µM): 0.877
relative viability (HCC-366; first compound 0.8 µM): 0.933
relative viability (HCC-366; first compound 2.53 µM): 0.941
relative viability (COR-L 105; first compound 0.08 µM): 1.17
relative viability (COR-L 105; first compound 0.253 µM): 1.06
relative viability (COR-L 105; first compound 0.8 µM): 1.14
relative viability (COR-L 105; first compound 2.53 µM): 0.964
relative viability (A-427; first compound 0.08 µM): 1.26
relative viability (A-427; first compound 0.253 µM): 1.07
relative viability (A-427; first compound 0.8 µM): 1.04
relative viability (A-427; first compound 2.53 µM): 0.862
relative viability (NCI-H441; first compound 0.08 µM): 1.15
relative viability (NCI-H441; first compound 0.253 µM): 0.891
relative viability (NCI-H441; first compound 0.8 µM): 1.19
relative viability (NCI-H441; first compound 2.53 µM): 1.02
relative viability (NCI-H1734; first compound 0.08 µM): 0.953
relative viability (NCI-H1734; first compound 0.253 µM): 0.784
relative viability (NCI-H1734; first compound 0.8 µM): 0.913
relative viability (NCI-H1734; first compound 2.53 µM): 0.829
relative viability (NCI-H2170; first compound 0.08 µM): 1.03
relative viability (NCI-H2170; first compound 0.253 µM): 1.01
relative viability (NCI-H2170; first compound 0.8 µM): 0.979
relative viability (NCI-H2170; first compound 2.53 µM): 0.864
relative viability (NCI-H23; first compound 0.08 µM): 1.08
relative viability (NCI-H23; first compound 0.253 µM): 0.844
relative viability (NCI-H23; first compound 0.8 µM): 0.868
relative viability (NCI-H23; first compound 2.53 µM): 0.962
